According to patent EP0112669A2, “Phenethylamine derivatives and intermediates therefor” (AMERICAN HOME PRODUCTS CORPORATION, priority 1982, dated 1984):
Read-outs that look alike come from different tables or passages of the source.

What was measured:
[1] = biological target: ^3H-imipramine binding in brain tissue
[2] = biological target: T1, synaptosomal uptake of serotonin (14C-5-HT) (Homo sapiens, UniProt P31645); assay: biochemical
T1 construct: from tissue

[3] = test system: reserpine-induced hypothermia; assay: Antagonism of reserpine-induced hypothermia; format: in vivo, mice; conditions: for minimal effective dose: Mus musculus, read-out: minimum effective dose (M.E.D.), antagonism of reserpine-induced hypothermia; for potency relative to Compound A in reversal of reserpine-induced hypothermia: compared with Compound A
Procedure: 37, 795-797 (1981); and antagonize reserpine induced hypothermia when tested in accordance with the procedure of Askew, Life Sci. 1, 725-730 (1963).
All mice received 5mg/kg reserpine s.c. 18 h prior to test compound.

[4] = biological target: synaptosomal uptake of norepinephrine (^3H-NE); assay: Inhibition of synaptosomal NE uptake
muscarinic receptor = conditions: read-out: Ki (^3H-QNB binding)
[5] = test system: carbachol-stimulated contraction of the guinea-pig ileum; assay: Inhibition of carbachol-stimulated contraction of guinea-pig ileum
[6] = read-out: inhibition constant (Ki) vs. ^3H-imipramine
[7] = ip, mice, n = 8 per group, 5mg/kg reserpine s.c. 18 h prior to test compound
[8] = unit inferred, read-out: inhibition constants (vs. ^3H-imipramine)

Sequence of synaptosomal uptake of norepinephrine (^3H-NE) (P23975 whole entry): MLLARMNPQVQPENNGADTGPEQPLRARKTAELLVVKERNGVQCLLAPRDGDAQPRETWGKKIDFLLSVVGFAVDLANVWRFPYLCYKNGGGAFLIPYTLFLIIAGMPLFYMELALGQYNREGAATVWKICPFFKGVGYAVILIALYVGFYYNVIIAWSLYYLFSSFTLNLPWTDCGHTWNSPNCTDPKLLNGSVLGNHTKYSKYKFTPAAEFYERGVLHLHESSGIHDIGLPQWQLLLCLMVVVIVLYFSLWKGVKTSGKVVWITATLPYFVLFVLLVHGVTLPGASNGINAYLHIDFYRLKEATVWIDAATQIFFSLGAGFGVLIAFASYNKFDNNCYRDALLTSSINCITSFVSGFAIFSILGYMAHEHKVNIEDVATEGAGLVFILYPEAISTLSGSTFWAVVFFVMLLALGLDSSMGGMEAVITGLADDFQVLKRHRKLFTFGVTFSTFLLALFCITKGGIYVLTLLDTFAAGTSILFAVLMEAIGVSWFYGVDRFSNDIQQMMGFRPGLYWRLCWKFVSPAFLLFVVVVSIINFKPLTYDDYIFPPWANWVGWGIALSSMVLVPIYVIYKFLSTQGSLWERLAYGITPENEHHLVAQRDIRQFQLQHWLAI
T1 sequence (P31645 whole entry): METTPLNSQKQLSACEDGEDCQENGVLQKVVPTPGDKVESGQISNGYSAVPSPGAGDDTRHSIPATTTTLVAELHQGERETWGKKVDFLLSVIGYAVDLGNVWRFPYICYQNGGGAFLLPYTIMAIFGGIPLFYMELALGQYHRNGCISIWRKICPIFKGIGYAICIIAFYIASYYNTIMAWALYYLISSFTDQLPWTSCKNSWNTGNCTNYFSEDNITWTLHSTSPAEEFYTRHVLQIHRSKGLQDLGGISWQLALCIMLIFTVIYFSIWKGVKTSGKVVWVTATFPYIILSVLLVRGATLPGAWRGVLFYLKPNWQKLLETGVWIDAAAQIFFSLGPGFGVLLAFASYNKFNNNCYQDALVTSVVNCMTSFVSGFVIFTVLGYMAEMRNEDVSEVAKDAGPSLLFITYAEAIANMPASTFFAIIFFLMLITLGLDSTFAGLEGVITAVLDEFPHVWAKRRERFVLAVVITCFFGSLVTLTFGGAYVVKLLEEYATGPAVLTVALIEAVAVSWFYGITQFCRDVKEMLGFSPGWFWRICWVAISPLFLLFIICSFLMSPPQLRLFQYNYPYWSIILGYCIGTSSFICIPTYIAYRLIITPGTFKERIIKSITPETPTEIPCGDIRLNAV

SMILES | minimal effective dose [3, 7] | potency relative to Compound A in reversal of reserpine-induced hypothermia ([3]; mice) | IC50 [4] | Ki [1, 8] | other results
COc1ccc(C2CN(C)COC23CCCCC3)cc1 (stereo not drawn) [Compound B, 5-(4-methoxyphenyl)-3-methyl-3-aza-l-oxas^piro(5.5) undecane] | 30 mg/kg | less potent | 4700 nM |  | Ki [1, 6]: 350 nM; IC50 [2]: 2900 nM
CN(C)CCCN1c2ccccc2CCc2ccccc21 [Imipramine, reference compound] |  |  |  |  | Ki (muscarinic receptor): 37 nM; Kb ([5]; Cavia porcellus, read-out: KB against carbachol-stimulated contraction of the guinea-pig ileum): ~100 nM
COc1ccc(C(CN(C)C)C2(O)CCCCC2)cc1 (racemic) [Compound A, 1-[(2-dimethylamino)-1-(4-methoxyphenyl)ethyl]-cyclohexanol] |  |  |  |  | activity against carbachol-stimulated contraction of the guinea-pig ileum ([5]; at 1 µM): inactive; minimal effective dose ([3]; ip): 10 mg/kg; minimal effective dose ([3]; po): 10 mg/kg
CN(C)CC(c1cccc(Cl)c1)C1(O)CCCCC1 (centres unmarked) [Compound E, 1-[1-(3-chlorophenyl)-2-(dimethylamino)ethyl]-cyclohexanol] | 1 mg/kg |  |  |  | Ki ([1]; read-out: inhibition constants (vs. ^3H-imipramine)): 130 nM
CN(C)CC(c1ccc(Br)cc1)C1(O)CCCCC1 (centres unmarked) [Compound D, 1-[1-(4-bromophenyl)-2-(dimethylamino)ethyl]-cyclohexanol] | 3 mg/kg | approximately three times as potent |  | 62 nM | 
CN(C)CC(c1ccc(Cl)c(Cl)c1)C1(O)CCCCC1 (centres unmarked) [Compound G, 1-[1-(3,4-dichlorophenyl)-2-(dimethylamino)ethyl]-cyclohexanol] | 3 mg/kg | approximately three times as potent | 70 nM | 37 nM | 
CN(C)CC(c1ccc(Cl)cc1)C1(O)CCCCC1 (centres unmarked) [Compound C, 1-[1-(4-chlorophenyl)-2-(dimethylamino)ethyl]-cyclohexanol] | 10 mg/kg | approximately equipotent | 330 nM |  | Ki [1, 6]: 100 nM; IC50 [2]: 250 nM
CNCCCN1c2ccccc2CCc2ccccc21 [DMI, desmethyl- imipramine, reference compound] |  |  |  |  | Ki (muscarinic receptor): […]; minimal effective dose ([3]; ip): 0.4 mg/kg
CN(C)CC(c1cccc(Br)c1)C1(O)CCCCC1 (centres unmarked) [Compound F, 1-[1-(3-bromophenyl)-2-(dimethylamino)ethyl]-cyclohexanol] | 1 mg/kg | approximately ten times as potent |  | 52 nM | 
